# Experimental data taken from PMC11858653, “Design, Synthesis and Bioactive Evaluation of Topo I/c-MYC Dual Inhibitors to Inhibit Oral Cancer via Regulating the PI3K/AKT/NF-κB Signaling Pathway” (Molecules, 2025).
# Assays:
# Cal27 = test: MTT antiproliferative assay, Cal27; type: cell-based, human; settings: mean ± SD
# Protocol: (§1) Having evaluated their Topo I inhibitory activity, the antiproliferative activity of the target compounds against some common human cancer cell lines (NCI-H460, A549, ACHN, Cal27 and MGC-803) and one normal cell line (SV-HUC-1) was tested via an MTT assay. TPT, the first Topo I inhibitor approved in clinics, and cisplatin (CDDP), a commonly selected anticancer drug for treating head and neck malignancies, were used as the positive controls.
# (§2) Human oral cancer Cal27 cells were seeded in 96-well plates and incubated overnight in 180 μL of medium containing 10% Fetal Bovine Serum (Gibco, San Francisco, CA, USA). […] Then, 10 μL of 5 mg/mL MTT solution was added to each well and incubated at 37 °C for 4 h. After 4 h of incubation at 37 °C, the MTT-containing medium was removed and DMSO was added to each well and the absorbance at 570 nm and 630 nm was measured using a microplate reader (CYTATION 3, Burton, Westwood, NJ, USA). Survival/% = (mean OD of experimental group/mean OD of control group) × 100%. Each test was repeated at least three times.
# Topo I = target: T1, Topo I (Homo sapiens, UniProt P11387); test: Topo I inhibitory activity, agarose gel electrophoresis (pBR322); type: biochemical; settings: 20 μM
# T1 sequence (P11387 1-765): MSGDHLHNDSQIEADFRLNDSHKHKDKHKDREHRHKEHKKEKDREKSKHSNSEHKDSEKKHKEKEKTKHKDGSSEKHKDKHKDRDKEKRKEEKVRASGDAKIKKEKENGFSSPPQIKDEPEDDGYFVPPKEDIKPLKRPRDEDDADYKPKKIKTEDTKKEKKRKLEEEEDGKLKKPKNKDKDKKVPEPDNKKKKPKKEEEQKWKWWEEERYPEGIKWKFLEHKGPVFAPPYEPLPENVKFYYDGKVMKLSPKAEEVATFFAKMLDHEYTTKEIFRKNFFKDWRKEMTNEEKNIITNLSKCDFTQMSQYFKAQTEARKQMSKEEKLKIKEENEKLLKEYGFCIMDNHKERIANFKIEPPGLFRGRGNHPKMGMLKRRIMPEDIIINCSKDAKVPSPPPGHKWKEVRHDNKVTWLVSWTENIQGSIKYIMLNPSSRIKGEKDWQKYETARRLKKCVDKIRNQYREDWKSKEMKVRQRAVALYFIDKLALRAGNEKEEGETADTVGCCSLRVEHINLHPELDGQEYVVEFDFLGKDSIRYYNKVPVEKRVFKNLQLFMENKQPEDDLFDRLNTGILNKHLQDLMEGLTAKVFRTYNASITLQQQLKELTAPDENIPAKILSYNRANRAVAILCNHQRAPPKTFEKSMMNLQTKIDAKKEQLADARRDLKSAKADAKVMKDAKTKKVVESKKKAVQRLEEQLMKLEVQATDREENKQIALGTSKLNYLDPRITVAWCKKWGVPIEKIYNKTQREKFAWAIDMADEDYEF
# Protocol: In this assay, 250 ng of pBR322 plasmid DNA, different concentrations of the compounds to be tested, 0.1% BSA 1 μL, 10× Topo I buffer, Topo I and add 1× TAE buffer were mixed to a final volume of 20 μL. The reaction was carried out for 30 min at 37 °C in a water bath. After the reaction was terminated, 4 μL of each of the 6× DNA Sampling Buffers were added to the gel. The pBR322 plasmid DNA alone was used as a negative control, and camptothecin was used as a positive control. Finally, the samples were loaded onto the gels and electrophoresed for about 1.5 h. After electrophoresis, the gel blocks were incubated in 1 mg/L ethidium bromide (EB) for 30 min and then visualized on the gel system.
# MGC-803 = test: MTT antiproliferative assay, MGC-803; type: cell-based, human; settings: mean ± SD
# Protocol: as §1, §2
# NCI-H460 = test: MTT antiproliferative assay, NCI-H460; type: cell-based, human; settings: mean ± SD
# Protocol: as §1, §2
# A549 = test: MTT antiproliferative assay, A549; type: cell-based, human; settings: mean ± SD
# Protocol: as §1, §2
# ACHN = test: MTT antiproliferative assay, ACHN; type: cell-based, human; settings: 48 h, mean ± SD
# Protocol: as §1, §2
# SV-HUC-1 = test: MTT assay, normal cell line SV-HUC-1; type: cell-based; settings: mean ± SD
# Protocol: as §1, §2
Structure (SMILES),nicked DNA in the lane (DNA breakage) (Topo I),"IC50 (MGC-803; Homo sapiens, MGC-803, 48 h)","IC50 (NCI-H460; Homo sapiens, NCI-H460, 48 h)","IC50 (A549; Homo sapiens, A549, 48 h)","IC50 (ACHN; Homo sapiens, ACHN)",Topo I inhibitory activity (in words) (Topo I),IC50 (MGC-803; 48 h),IC50 (NCI-H460; 48 h),IC50 (A549; 48 h),IC50 (ACHN),"IC50 (Cal27; Homo sapiens, CAL-27, 48 h)","IC50 (SV-HUC-1; SV-HUC1, 48 h)",IC50 (Cal27; 48 h),IC50 (SV-HUC-1; 48 h)
"CCN(CC)CCCNc1nc2c(c3ccccc13)S(=O)(=O)c1ncccc1-2 [7ag, 5-((3-(Diethylamino)propyl)amino)pyrido[3′,2′:4,5] thieno[3,2-c]isoquinoline 11,11-dioxide]",nicked DNA could be clearly observed,24.37 ± 0.18 µM,57.8 ± 0.65 µM,30 ± 0.31 µM,26.9 ± 0.72 µM,–,–,–,–,–,22.5 ± 1.84 µM,75.8 ± 2.79 µM,–,–
"Cc1cc(C)c2c(n1)S(=O)(=O)c1c-2nc(NCCN2CCOCC2)c2ccccc12 [7bd, 7,9-Dimethyl-5-((2-morpholinoethyl)amino)pyrido[3′,2′:4,5]thieno[3,2-c]isoquinoline 11,11-dioxide]",–,> 100 µM,> 100 µM,> 100 µM,> 100 µM,weak Topo I activity,–,–,–,–,> 100 µM,> 100 µM,–,–
"Cc1cc(C)c2c(n1)S(=O)(=O)c1c-2nc(NCCCn2ccnc2)c2ccccc12 [7bj, 5-((3-(1H-Imidazol-1-yl)propyl)amino)-7,9-dimethylpyrido[3′,2′:4,5]thieno[3,2-c]isoquinoline 11,11-dioxide]",–,> 100 µM,> 100 µM,> 100 µM,> 100 µM,–,–,–,–,–,> 100 µM,> 100 µM,–,–
"CC[C@@]1(O)C(=O)OCc2c1cc1n(c2=O)Cc2cc3c(CN(C)C)c(O)ccc3nc2-1 [TPT, topotecan, reference compound]",–,6.36 ± 1.09 µM,21.4 ± 1.33 µM,3.84 ± 0.56 µM,4.32 ± 0.63 µM,–,–,–,–,–,2.33 ± 0.12 µM,30.8 ± 1.58 µM,–,–
"O=S1(=O)c2ncccc2-c2nc(NCCCN3CCOCC3)c3ccccc3c21 [7ai, 5-((3-Morpholinopropyl)amino)pyrido[3′,2′:4,5] thieno[3,2-c]isoquinoline 11,11-dioxide]",–,> 100 µM,> 100 µM,> 100 µM,> 100 µM,–,–,–,–,–,> 100 µM,> 100 µM,–,–
"O=S1(=O)c2ncccc2-c2nc(NCCN3CCCCC3)c3ccccc3c21 [7ae, 5-((2-(Piperidin-1-yl)ethyl)amino)pyrido[3′,2′:4,5] thieno[3,2-c]isoquinoline 11,11-dioxide]",–,14.2 ± 2.46 µM,16.9 ± 0.78 µM,> 100 µM,61.7 ± 4.9 µM,–,–,–,–,–,7.96 ± 2.24 µM,15.2 ± 2.43 µM,–,–
"CN(C)CCNc1nc2c(c3ccccc13)S(=O)(=O)c1ncccc1-2 [7aa, 5-((2-(Dimethylamino)ethyl)amino)pyrido[3′,2′:4,5] thieno[3,2-c]isoquinoline 11,11-dioxide]",–,21.6 ± 0.64 µM,59 ± 3.81 µM,> 100 µM,20.5 ± 4.82 µM,–,–,–,–,–,14.4 ± 4.75 µM,20.8 ± 3.83 µM,–,–
"CCN(CC)CCNc1nc2c(c3ccccc13)S(=O)(=O)c1ncccc1-2 [7ab, 5-((2-(Diethylamino)ethyl)amino)pyrido[3′,2′:4,5] thieno[3,2-c]isoquinoline 11,11-dioxide]",–,47 ± 2.43 µM,59.7 ± 9.65 µM,42.6 ± 1.89 µM,> 100 µM,–,–,–,–,–,23.8 ± 1.08 µM,21.6 ± 3.19 µM,–,–
"O=S1(=O)c2ncccc2-c2nc(N3CCCC3)c3ccccc3c21 [7al, 5-(Pyrrolidin-1-yl)pyrido[3′,2′:4,5]thieno[3,2-c]isoquinoline 11,11-dioxide]",–,> 100 µM,> 100 µM,> 100 µM,> 100 µM,–,–,–,–,–,> 100 µM,> 100 µM,–,–
"O=S1(=O)c2ncccc2-c2nc(NCCN3CCOCC3)c3ccccc3c21 [7ad, 5-((2-Morpholinoethyl)amino)pyrido[3′,2′:4,5]thieno[3,2-c]isoquino-line 11,11-dioxide]",–,> 100 µM,> 100 µM,> 100 µM,> 100 µM,–,–,–,–,–,> 100 µM,> 100 µM,–,–
"O=S1(=O)c2ncccc2-c2nc(NCCCn3ccnc3)c3ccccc3c21 [7aj, 5-((3-(1H-Imidazol-1-yl)propyl)amino)pyrido[3′,2′:4,5]thieno[3,2-c]isoquinoline 11,11-dioxide]",–,> 100 µM,> 100 µM,> 100 µM,> 100 µM,–,–,–,–,–,> 100 µM,> 100 µM,–,–

# The next lines start with results.
nicked DNA in the lane (DNA breakage) (Topo I),"IC50 (MGC-803; Homo sapiens, MGC-803, 48 h)","IC50 (NCI-H460; Homo sapiens, NCI-H460, 48 h)","IC50 (A549; Homo sapiens, A549, 48 h)","IC50 (ACHN; Homo sapiens, ACHN)",Topo I inhibitory activity (in words) (Topo I),IC50 (MGC-803; 48 h),IC50 (NCI-H460; 48 h),IC50 (A549; 48 h),IC50 (ACHN),Structure (SMILES),"IC50 (Cal27; Homo sapiens, CAL-27, 48 h)","IC50 (SV-HUC-1; SV-HUC1, 48 h)",IC50 (Cal27; 48 h),IC50 (SV-HUC-1; 48 h)
–,–,–,–,–,–,94 ± 2.15 µM,93 ± 8.03 µM,86.5 ± 3.15 µM,> 100 µM,"Cc1cc(-c2ccccc2)nc2c1-c1nc(NCCN3CCCCC3)c3ccccc3c1S2(=O)=O [7ce, 7-Methyl-9-phenyl-5-((2-(piperidin-1-yl)ethyl)-amino)pyrido[3′,2′:4,5]thieno[3,2-c]isoquinoline 11,11-dioxide]",–,–,56.8 ± 2.59 µM,> 100 µM
–,–,–,–,–,–,53.1 ± 3.78 µM,> 100 µM,> 100 µM,> 100 µM,"Cc1cc(-c2ccccc2)nc2c1-c1nc(NCCN(C)C)c3ccccc3c1S2(=O)=O [7ca, 5-((2-(Dimethylamino)ethyl)amino)-7-methyl-9-phenylpyrido[3′,2′:4,5]-thieno[3,2-c]isoquinoline 11,11-dioxide]",–,–,> 100 µM,> 100 µM
–,–,–,–,–,–,> 100 µM,> 100 µM,> 100 µM,> 100 µM,"Cc1cc(-c2ccccc2)nc2c1-c1nc(NCCN3CCCC3)c3ccccc3c1S2(=O)=O [7cc, 7-Methyl-9-phenyl-5-((2-(pyrrolidin-1-yl)ethyl)amino)pyrido[3′,2′:4,5]thieno[3,2-c]isoquinoline 11,11-dioxide]",–,–,> 100 µM,> 100 µM
–,–,–,–,–,–,> 100 µM,> 100 µM,78.9 ± 2.86 µM,> 100 µM,"Cc1cc(-c2ccccc2)nc2c1-c1nc(NCCN3CCOCC3)c3ccccc3c1S2(=O)=O [7cd, 7-Methyl-5-((2-morpholinoethyl)amino)-9-phenylpyrido[3′,2′:4,5]thieno[3,2-c]isoquinoline 11,11-dioxide]",–,–,> 100 µM,> 100 µM
–,–,–,–,–,–,> 100 µM,> 100 µM,> 100 µM,> 100 µM,"Cc1cc(-c2ccccc2)nc2c1-c1nc(NCCCN3CCOCC3)c3ccccc3c1S2(=O)=O [7ci, 7-Methyl-5-((3-morpholinopropyl)amino)-9-phenylpyrido[3′,2′:4,5]thieno[3,2-c]isoquinoline 11,11-dioxide]",–,–,> 100 µM,> 100 µM
–,–,–,–,–,–,> 100 µM,> 100 µM,37.39 ± 0.21 µM,> 100 µM,"CCN(CC)CCNc1nc2c(c3ccccc13)S(=O)(=O)c1nc(-c3ccccc3)cc(C)c1-2 [7cb, 5-((2-(Diethylamino)ethyl)amino)-7-methyl-9-phenylpyrido[3′,2′:4,5]thieno[3,2-c]isoquinoline 11,11-dioxide]",–,–,20.3 ± 2.34 µM,> 100 µM
–,–,–,–,–,–,> 100 µM,> 100 µM,> 100 µM,> 100 µM,"Cc1cc(-c2ccccc2)nc2c1-c1nc(NCCCn3ccnc3)c3ccccc3c1S2(=O)=O [7cj, 5-((3-(1H-imidazol-1-yl)propyl)amino)-7-methyl-9-phenylpyrido[3′,2′:4,5]thieno[3,2-c]isoquinoline 11,11-dioxide]",–,–,> 100 µM,> 100 µM
